This is an account of results in patent US9494572B2, “Method and compositions for treating cancer and related methods” (Icahn School of Medicine at Mount Sinai, priority 2011, dated 2016).

Each structure is given as a SMILES string. Like-named read-outs stand apart in the source and are kept apart here. Bounds are passed on as bounds.

By IC50 is commonly meant the concentration at which inhibition is half-maximal.

For assay [1] the following is noted: cited from earlier work.
The subject of a further assay is H1650 cell line. Put plainly: Apoptosis (FACS sub-G1, cleaved PARP and Caspase 3) in H1650. It is filed as cell-based, human. As to the method: (§1) Cells treated with drug or transfected with siRNA were stained with propidium iodide to ascertain DNA content and determine cell cycle distribution within the cell population as previously described. […] Sub-G1 peaks were analyzed on DNA histograms; hypo diploid DNA represented dead cells. This fraction indicated apoptotic as well as necrotic cells. Apoptosis was further validated by Caspase 3 and PARP cleavage through western blotting.
(§2) The role of KLF6 in induction of apoptosis in response to anti-EGFR therapeutics was further tested in cell culture.

For assay [2], the system named is KLF6. Briefly: KLF6 mRNA and protein expression in H1650. In kind it is cell-based, human. As to conditions: 40 μM TFP, 1 h and 48 h. As to the method:
(§3) RNA was isolated from cell lines and tumor samples using the RNeasy Mini Kit (Qiagen) as per manufacturer's instructions. For each PCR reaction, 1 μg RNA was reverse transcribed using iScript cDNA synthesis kit (BioRad Laboratories). Each cDNA sample was subjected to sequence-specific partial amplification with specific primers and the SYBR green PCR Master Mix (Applied Biosystems) on an ABI PRISM 7900HT plate-reader instrument. […] The following primers were also used: FOXO1 forward 5′ […]
as §2

The test system of assay [3] is FOXO1. Put plainly: Nuclear cytoplasmic fractionation of H1650. In kind it is cell-based, human. As to conditions: 20 μM, 1 h. Here is the method:
H1650 cells were seeded and grown to 60-70% confluency, and treated with increasing doses of TFP. Cell lysates were extracted using NE-PER Nuclear and Cytoplasmic Extraction Reagents (Thermo Scientific) according to supplier's protocol.
Trifluoperazine Hydrochloride (TFP), a FDA-approved antipsychotic and antiemetic, is an effective nuclear export inhibitor of the FOXO1 transcription factor that increases FOXO1 nuclear localization via calmodulin inhibition upstream of AKT and downstream of PI3K. Kau, T. R., et al. Cancer Cell 4, 463-476 (2003). TFP was used to inhibit nuclear export of FOXO1 and determine if activation of the FOXO1/KLF6 transcriptional network could restore sensitivity to the PTEN-depleted, erlotinib-resistant cell line, H1650. To examine the effect of TFP on nuclear localization of FOXO1 and, subsequently, KLF6 expression, H1650 cells were treated for 1 h with increasing doses of TFP (0, 20 μM, 40 μM) and fractionated into nuclear and cytoplasmic fractions. BRCA1 served as a nuclear marker and GAPDH served as a cytoplasmic marker for the fractionation.

In another assay the test system is H1650 xenograft tumors. Put plainly: Tumorgenicity assay, H1650 xenograft. In kind it is in vivo, nude mice. The conditions noted are these: i.p., erlotinib 25 mg/kg, TFP 10 mg/kg, four treatments.
The next assay concerns H1650. Put plainly: Cell viability, H1650. It is filed as cell-based. As to conditions: Homo sapiens, NCI-H1650.
For the next assay, the system named is A549luc. Briefly: Cell viability, A549luc. It is filed as cell-based. As to conditions: Homo sapiens.
In a further assay the test system is H3255. Briefly: Cell viability, H3255. In kind it is cell-based. The conditions noted are these: Homo sapiens, NCI-H3255.
For assay [4], the system named is FOXO1. Put plainly: FOXO1 immunocytochemistry in H1650 cells. As to conditions: 20 μM, 48 hours, vs untreated.
Method: Viability of cells line H1650, A549luc and H3255 were determined for cells grown in control medium and medium supplemented with 10 μM, 20 μM and 40 μM chlorpromazine.
H1650 cells were plated on glass coverslips at a density of 150,000 cells in complete RPMI media. […] After incubation with a secondary goat anti-Rabbit IgG (1:1000), (H+L) FITC conjugate (Millipore, P307F), cover slips were mounted with Vectashield DAPI counterstain (H1200) and visualized under fluorescent microscope. A total of 100 cells per condition were counted to determine the distribution of FOXO1 in the cytoplasm vs. the nucleus.
The next assay deals with HCC827 cell line. Here is the method:
as §1
(§4) In addition, dysregulated activity of downstream mediators of EGFR signaling, such as PTEN, PI3K and K-Ras or amplification of the MET proto-oncogene can also drive the resistant phenotype.

In the next assay the test system is A549 cell line. Briefly: Apoptosis (FACS sub-G1 fraction, cleaved PARP) in A549. It is filed as cell-based, human. As to the method: as §1, §4
Another assay has as its system H2122 cell line. Briefly: Apoptosis (FACS sub-G1 fraction, cleaved PARP) in H2122. In kind it is cell-based, human. Here is the method:
as §1, §4

In the next assay the test system is H1975 cell line. Briefly: Apoptosis (FACS sub-G1 fraction, cleaved PARP) in H1975. It is filed as cell-based. The conditions noted are these: Homo sapiens, NCI-H1975; H1975 (T790M EGFR); 72 h; read-out: IC50, erlotinib-mediated apoptosis. As to the method: as §1, §4
Assay [5] deals with KLF6. Put plainly: KLF6 mRNA and protein expression (qRT-PCR, western) in HCC827. In kind it is cell-based, human. As to the method:
as §3

For assay [6], the system named is KLF6. Put plainly: KLF6 mRNA and protein expression in H2122. As to conditions: 1 μM 72 h. In kind it is cell-based, human. As to the method: as §3
Assay [7] has as its system KLF6. Put plainly: KLF6 mRNA and protein expression in A549. It is filed as cell-based, human. The conditions noted are these: 1 μM 72 h. Here is the method: as §3
For assay [8], the system named is EGFR^L858R mutant mouse-derived tumors. As to conditions: in vivo.
Assay [9] concerns P-EGFR, P-AKT, P-FOXO1, T-FOXO1. Briefly: Western blot of EGFR-AKT-FOXO1 signaling in HCC827. It is filed as cell-based, human. Here is the method:
EGFR activates two major downstream pathways, the Ras-Raf-MAPK and the PI3K-AKT signaling cascades, resulting in both increased cellular proliferation and survival. […] The role of PI3K-AKT signaling cascade was tested utilizing an antagonist of AKT signaling that acts by inhibiting of the PDK1 and 2 kinases that activate AKT.
For orientation: A western blot detects proteins with antibodies after separation by electrophoresis.

The test system of a further assay is FOXO1 and KLF6. It is filed as cell-based, human.
Another assay has as its system shLuc-HCC827. Briefly: Clonogenic assay, shLuc-HCC827. It is filed as cell-based, human. As to conditions: control shLuc; 50 nM; 7 days. Here is the method:
HCC827 shLuc and shKLF6 were plated at a low density in 6-well plates. […] Cells were fixed and then stained with 1% crystal violet staining solution.

The subject of assay [10] is ERK and AKT.
From the text: (§5) The variable sensitivity of the lung adenocarcinoma cell lines to anti-EGFR-based therapy was used to determine the effects of EGFR inhibition on KLF6 gene transcription.
The subject of assay [11] is ERK and AKT. The source holds these as a separate data set.
From the text: as §5

Method for H1650 xenograft tumors: H1650 cells (5×10^6) were similarly injected into the right flank of 6 to 8-week old female BALB/c nu/nu mice. Tumor volume was assessed weekly as previously described by Sangodkar, J., et al., supra until volumes reached an average of 200 mm^3. […] A total of four treatments were given with a 48 h rest period.
Tumor growth was measured weekly until average tumor volume for all mice was approximately 200 mm^3. […] Tumor growth in H1650-injected nude mice was measured 24 hours after each drug injection. […] Lysate homogenates from treated and untreated tumors were run and probed in parallel (n=5); statistical significance of densitometry calculations indicated (*P<0.05; **P<0.01; ***P<0.001).

For `CN(C)CCCN1c2ccccc2Sc2ccccc21` [promazine], in assay [1], the average daily clinical dose for CNS effect was 33 µmol/kg.
For the compound `OCCN1CCN(CC/C=C2/c3ccccc3Sc3ccc(Cl)cc32)CC1` [zuclopenthixol], the “average daily clinical dose for CNS effect” value (shortened to “average daily clinical dose”) in [1] was around 0.05 µmol/kg.
On to `OCCN1CCN(CCCN2c3ccccc3Sc3ccc(Cl)cc32)CC1` [perphenazine], for which the “average daily clinical dose” value in assay [1] is around 1 µmol/kg.
For the compound `CN1CCN(CCCN2c3ccccc3Sc3ccc(C(F)(F)F)cc32)CC1` [TFP, 10-[3-(4-methylpiperazin-1-yl)propyl]-2-(trifluoromethyl)-10H-phenothiazine], the “Apoptosis (FACS, cleaved PARP, cleaved Caspase 3)” value in the assay with H1650 cell line (40 μM TFP, 1 h) is listed as “increased apoptosis”. Besides, the “KLF6 mRNA and protein” value with KLF6 [2] was “upregulation of KLF6 mRNA and protein”. For the same compound, in the assay with FOXO1 [3], the “Nuclear FOXO1 expression” value is “increased nuclear FOXO1 expression”. Also, in the assay on H1650 xenograft tumors, the Tumor growth rate result is “decreased”. In assay [1], the “average daily clinical dose” value is 0.3 µmol/kg.
For the compound `CN(C)CCCN1c2ccccc2Sc2ccc(C(F)(F)F)cc21` [triflupromazine], the “average daily clinical dose” value in [1] is 6 µmol/kg.
In the case of `CN(C)CCCN1c2ccccc2Sc2ccc(Cl)cc21` [chlorpromazine, 3-(2-chloro-10H-phenothiazin-10-yl)-N,N-dimethyl-propan-1-amine], the “Apoptosis (sub-G1 propidium iodide staining)” value with H1650 cell line (increasing doses of CPZ, 48 hrs) is “increased amount of apoptosis”. The results for the IC50 in the assay with H1650, in the assay on A549luc and in the assay with H3255 were 20 µM, 20 µM and 8 µM, respectively. The “average daily clinical dose” value in [1] was 12 µmol/kg. Further, the “Nuclear accumulation of FOXO1” value with FOXO1 [4] is “significant nuclear accumulation of FOXO1”.
As to `OCCN1CCN(CCCN2c3ccccc3Sc3ccc(C(F)(F)F)cc32)CC1` [fluphenazine], the “average daily clinical dose” value in assay [1] is 0.17 µmol/kg.
Consider `OCCN1CCN(CC/C=C2/c3ccccc3Sc3ccc(C(F)(F)F)cc32)CC1` [flupentixol], for which the “average daily clinical dose” value in [1] was 0.01 µmol/kg.
Turning to `CSc1ccc2c(c1)N(CCC1CCCCN1C)c1ccccc1S2` (stereo not drawn) [thiordazine], the “average daily clinical dose” value in assay [1] is 13 µmol/kg.
Regarding `C#Cc1cccc(Nc2ncnc3cc(OCCOC)c(OCCOC)cc23)c1` [erlotinib, [6,7-bis(2-methoxyethoxy)-4-quinazolin-4-yl]-(3-ethynylphenyl) amine], the “Apoptosis (sub-G1 propidium iodide staining, cleaved PARP)” value is reported as “significantly increased levels of apoptosis” in the assay on HCC827 cell line and “no increase in apoptosis” in the assay with H1650 cell line (1 μM erlotinib, 48 h). In the assay on HCC827 cell line, the “Cleaved PARP” value is “increased cleaved PARP”. The Induction of apoptosis result with A549 cell line (A549) and with H2122 cell line (H2122) was “did not result in a significant induction of apoptosis” in each case. Besides, the IC50 in the assay with A549 cell line (Homo sapiens, A549, 72 h, read-out: IC50, erlotinib-mediated apoptosis) is above 0.5 µM; with H2122 cell line (Homo sapiens, NCI-H2122, 72 h, read-out: IC50, erlotinib-mediated apoptosis), above 0.5 µM; with H1975 cell line, above 0.5 µM. Also, the KLF6 expression result with KLF6 [5] is recorded as “significant upregulated”. Further, the “KLF6 gene expression, endogenous mRNA and protein” value in the assay on KLF6 [5] is “Significant upregulation”. Besides, the “KLF6 expression, mRNA and protein” value in the assay with KLF6 [6] and with KLF6 [7] was “still upregulated” throughout. Besides, the “KLF6 expression in tumors” value in assay [8] was “increased KLF6 expression at both the mRNA and protein level”. Also, the “Spontaneous apoptosis, Caspase 3 cleavage in tumors” value in [8] is “increased Caspase 3 cleavage”. The “Phosphorylated EGFR, AKT and FOXO1” value in [9] is “reduced phosphorylated forms of EGFR, AKT and FOXO1”. Moreover, the “Total FOXO1” value in assay [9] was “increased total amount of FOXO1”. Besides, the “Nuclear localization of FOXO1 and KLF6” value in the assay with FOXO1 and KLF6 was “increased”. Moreover, in the assay on shLuc-HCC827, the Colony formation entry was “decreased colony formation”. For the same compound, the Tumor growth rate result in the assay with H1650 xenograft tumors is “increased”. For the same compound, the “Downstream ERK signaling” value with ERK and AKT [10] is “no changes in downstream ERK signaling”; in the assay on ERK and AKT [11] it was “no changes in downstream ERK signaling”.
